Assay results reported in patent publication US20120028888A1, “APJ RECEPTOR COMPOUNDS” (priority 2008, published 2012).
Each block holds one compound with its values, some of them ahead of it. Non-standard residues stand in square brackets, D forms with d. Residues, ends and D or L forms follow the SMILES beside them. ξ: configuration not given here. *: point of attachment. Palmitoyl = CCCCCCCCCCCCCCCC(=O)*; ξR = N=C(N)NCCCC(N)C(=O)O

Target: T1, Gi-coupled receptor APJ (HEK cells stably expressing the APJ receptor) (Homo sapiens, UniProt P35414)
T1 construct: expressed in transfected cells; host or cells: HEK cells stably expressing APJ
T1 sequence (P35414 1-380): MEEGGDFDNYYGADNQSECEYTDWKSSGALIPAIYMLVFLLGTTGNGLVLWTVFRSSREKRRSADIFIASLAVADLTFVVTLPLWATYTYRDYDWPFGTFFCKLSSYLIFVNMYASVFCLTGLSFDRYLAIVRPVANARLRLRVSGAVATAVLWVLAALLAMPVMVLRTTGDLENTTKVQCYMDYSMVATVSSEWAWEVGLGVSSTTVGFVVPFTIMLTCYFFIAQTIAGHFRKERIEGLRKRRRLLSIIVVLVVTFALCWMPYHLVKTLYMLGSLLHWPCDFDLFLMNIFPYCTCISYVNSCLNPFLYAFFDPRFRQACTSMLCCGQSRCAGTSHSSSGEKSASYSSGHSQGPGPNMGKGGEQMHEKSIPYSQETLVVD
Test: HTRF cAMP assay: inhibition of NKH477 stimulated increase in cAMP
Assay type: cell-based
Settings: read-out: EC50 value (nM), SEM
From the text: HTRF (homogeneous time resolved fluorescence) is a technology developed by Cisbio Bioassays based on TR-FRET (time-resolved fluorescence resonance energy transfer). Cisbio Bioassays has developed a wide selection of HTRF-based assays compatible with whole cells, thereby enabling functional assays to run under more physiological conditions. The IP-One assays are competitive immunoassays using cryptate-labeled anti-IPI monoclonal antibody and d2-labeled IP1. IP1 is a relatively stable downstream metabolite of IP3, and accumulates in cells following Gq receptor activation.
cAMP kits based on a competitive immunoassay using cryptate-labeled anti-cAMP antibody and d2-labeled cAMP were used to assay the effects of APJ compounds of the present invention. This assay measures the increase in intracellular cAMP upon Gs-coupled receptor activation as well as decrease in forskolin (or a more soluble version of forskolin—NKH477) stimulated increase in cAMP upon Gi-coupled receptor activation.

- EC50: 1000 to 5000 nM
SMILES: CCCCCCCCCCCCCCCC(=O)N[C@H](C(=O)N[C@@H](CO)C(=O)N[C@@H](CO)C(=O)N[C@@H](CCCNC(=N)N)C(=O)N[C@@H](CCC(=O)O)C(=O)N[C@@H](CCCCN)C(=O)N[C@@H](CCCNC(=N)N)C(=O)N[C@@H](CCCNC(=N)N)C(=O)N[C@@H](CO)C(=O)N[C@@H](C)C(=O)N[C@@H](CC(=O)O)C(=O)N[C@H](C(=O)N[C@@H](Cc1ccccc1)C(=O)N[C@H](C(N)=O)[C@@H](C)CC)[C@@H](C)CC)C(C)C [Compound 25] (Palmitoyl-VSSREKRRSADIFI-NH2)

- EC50: > 10000 nM
SMILES: CCCCCCCCCCCCCCCC(=O)N[C@@H](CCCNC(=N)N)C(=O)N1CCC[C@H]1C(=O)N[C@H](C(=O)N[C@@H](C)C(=O)N[C@@H](CC(N)=O)C(=O)N[C@@H](C)C(=O)N[C@@H](CCCNC(=N)N)C(=O)N[C@@H](CC(C)C)C(=O)N[C@@H](CCCNC(=N)N)C(=O)N[C@@H](CC(C)C)C(=O)N[C@@H](CCCNC(=N)N)C(=O)N[C@H](C(=O)N[C@@H](CO)C(=O)NCC(N)=O)C(C)C)C(C)C [Compound 75] (Palmitoyl-RPVANARLRLRVSG-NH2)

- EC50: > 10000 nM
SMILES: CCCCCCCCCCCCCCCC(=O)N[C@@H](C)C(=O)N[C@H](C(=O)N[C@H](C(=O)N[C@@H](CCCNC(=N)N)C(=O)N1CCC[C@H]1C(=O)N[C@H](C(=O)N[C@@H](C)C(=O)N[C@@H](CC(N)=O)C(=O)N[C@@H](C)C(=O)N[C@@H](CCCNC(=N)N)C(=O)N[C@@H](CC(C)C)C(=O)N[C@@H](CCCNC(=N)N)C(=O)N[C@@H](CC(C)C)C(=O)N[C@@H](CCCNC(=N)N)C(=O)N[C@H](C(=O)N[C@@H](CO)C(=O)NCC(N)=O)C(C)C)C(C)C)C(C)C)[C@@H](C)CC [Compound 78] (Palmitoyl-AIVRPVANARLRLRVSG-NH2)

- EC50: > 10000 nM
SMILES: CCCCCCCCCCCCCCCC(=O)N[C@H](C(=O)N[C@@H](CCCNC(=N)N)C(=O)N1CCC[C@H]1C(=O)N[C@H](C(=O)N[C@@H](C)C(=O)N[C@@H](CC(N)=O)C(=O)N[C@@H](C)C(=O)N[C@@H](CCCNC(=N)N)C(=O)N[C@@H](CC(C)C)C(N)=O)C(C)C)C(C)C [Compound 81] (Palmitoyl-VRPVANARL-NH2)

- EC50: > 10000 nM
SMILES: CCCCCCCCCCCCCCCC(=O)N[C@H](C(=O)N[C@@H](CCCNC(=N)N)C(=O)N1CCC[C@H]1C(=O)N[C@H](C(=O)N[C@@H](C)C(=O)N[C@@H](CC(N)=O)C(=O)N[C@@H](C)C(=O)N[C@@H](CCCNC(=N)N)C(=O)N[C@@H](CC(C)C)C(=O)N[C@@H](CCCNC(=N)N)C(=O)N[C@@H](CC(C)C)C(=O)N[C@@H](CCCNC(=N)N)C(=O)N[C@H](C(N)=O)C(C)C)C(C)C)C(C)C [Compound 85] (Palmitoyl-VRPVANARLRLRV-NH2)

- EC50: > 10000 nM
SMILES: CCCCCCCCCCCCCCCC(=O)N[C@H](C(=O)N[C@@H](CCCNC(=N)N)C(=O)N1CCC[C@H]1C(=O)N[C@H](C(=O)N[C@@H](C)C(=O)N[C@@H](CC(N)=O)C(=O)N[C@@H](C)C(=O)N[C@@H](CCCNC(=N)N)C(=O)N[C@@H](CC(C)C)C(=O)NC(CCCNC(=N)N)C(N)=O)C(C)C)C(C)C (stereo partly drawn) [Compound 80] (Palmitoyl-VRPVANARL[ξR]-NH2)

Further lines, the compound ahead of its results:

SMILES: CCCCCCCCCCCCCCCC(=O)N[C@H](C(=O)N[C@H](C(=O)N[C@@H](Cc1ccccc1)C(=O)N[C@@H](CCCNC(=N)N)C(=O)N[C@@H](CO)C(=O)N[C@@H](C)C(=O)N[C@@H](CCCNC(=N)N)C(=O)N[C@@H](CCC(=O)O)C(=O)N[C@@H](CCCCN)C(=O)N[C@@H](CCCNC(=N)N)C(=O)N[C@@H](CCCNC(=N)N)C(=O)N[C@@H](CO)C(=O)N[C@@H](C)C(=O)N[C@@H](CC(=O)O)C(=O)N[C@H](C(=O)N[C@@H](Cc1ccccc1)C(=O)N[C@H](C(N)=O)[C@@H](C)CC)[C@@H](C)CC)C(C)C)[C@@H](C)O [Compound 28] (Palmitoyl-TVFRSAREKRRSADIFI-NH2)
- EC50: 1 to 500 nM

SMILES: CCCCCCCCCCCCCCCC(=O)N[C@H](C(=O)N[C@H](C(=O)N[C@@H](Cc1ccccc1)C(=O)N[C@@H](CCCNC(=N)N)C(=O)N[C@@H](CO)C(=O)N[C@@H](CO)C(=O)N[C@@H](CCCNC(=N)N)C(=O)N[C@@H](C)C(=O)N[C@@H](CCCCN)C(=O)N[C@@H](CCCNC(=N)N)C(=O)N[C@@H](CCCNC(=N)N)C(=O)N[C@@H](CO)C(=O)N[C@@H](C)C(=O)N[C@@H](CC(=O)O)C(=O)N[C@H](C(=O)N[C@@H](Cc1ccccc1)C(=O)N[C@H](C(N)=O)[C@@H](C)CC)[C@@H](C)CC)C(C)C)[C@@H](C)O [Compound 41] (Palmitoyl-TVFRSSRAKRRSADIFI-NH2)
- EC50: 1 to 500 nM

SMILES: CCCCCCCCCCCCCCCC(=O)N[C@H](C(=O)N[C@H](C(=O)N[C@@H](Cc1ccccc1)C(=O)N[C@@H](CCCNC(=N)N)C(=O)N[C@@H](CO)C(=O)N[C@@H](CO)C(=O)N[C@@H](CCCNC(=N)N)C(=O)N[C@@H](CCC(=O)O)C(=O)N[C@@H](CCCCN)C(=O)N[C@@H](CCCNC(=N)N)C(=O)N[C@@H](CCCNC(=N)N)C(=O)N[C@@H](C)C(=O)N[C@@H](C)C(=O)N[C@@H](CC(=O)O)C(=O)N[C@H](C(=O)N[C@@H](Cc1ccccc1)C(=O)N[C@H](C(N)=O)[C@@H](C)CC)[C@@H](C)CC)C(C)C)[C@@H](C)O [Compound 32] (Palmitoyl-TVFRSSREKRRAADIFI-NH2)
- EC50: 1 to 500 nM

SMILES: CCCCCCCCCCCCCCCC(=O)N[C@H](C(=O)N[C@H](C(=O)N[C@@H](Cc1ccccc1)C(=O)N[C@@H](CCCNC(=N)N)C(=O)N[C@@H](CO)C(=O)N[C@@H](CO)C(=O)N[C@@H](CCCNC(=N)N)C(=O)N[C@@H](CCC(=O)O)C(=O)N[C@@H](CCCCN)C(=O)N[C@@H](CCCNC(=N)N)C(=O)N[C@@H](CCCNC(=N)N)C(=O)N[C@@H](CO)C(=O)N[C@@H](C)C(=O)N[C@@H](CC(=O)O)C(=O)N[C@H](C(=O)N[C@@H](Cc1ccccc1)C(=O)N[C@H](C(=O)O)[C@@H](C)CC)[C@@H](C)CC)C(C)C)[C@@H](C)O [Compound 42] (Palmitoyl-TVFRSSREKRRSADIFI-OH)
- EC50: 1000 to 5000 nM

SMILES: CCCCCCCCCCCCCCCC(=O)N[C@H](C(=O)N[C@H](C(=O)N[C@@H](Cc1ccccc1)C(=O)N[C@@H](C)C(=O)N[C@@H](CO)C(=O)N[C@@H](CO)C(=O)N[C@@H](CCCNC(=N)N)C(=O)N[C@@H](CCC(=O)O)C(=O)N[C@@H](CCCCN)C(=O)N[C@@H](CCCNC(=N)N)C(=O)N[C@@H](CCCNC(=N)N)C(=O)N[C@@H](CO)C(=O)N[C@@H](C)C(=O)N[C@@H](CC(=O)O)C(=O)N[C@H](C(=O)N[C@@H](Cc1ccccc1)C(=O)N[C@H](C(N)=O)[C@@H](C)CC)[C@@H](C)CC)C(C)C)[C@@H](C)O [Compound 24] (Palmitoyl-TVFASSREKRRSADIFI-NH2)
- EC50: 1000 to 5000 nM

SMILES: CCCCCCCCCCCCCCCC(=O)N[C@@H](Cc1ccccc1)C(=O)N[C@@H](CCCNC(=N)N)C(=O)N[C@@H](CO)C(=O)N[C@@H](CO)C(=O)N[C@@H](CCCNC(=N)N)C(=O)N[C@@H](CCC(=O)O)C(=O)N[C@@H](CCCCN)C(=O)N[C@@H](CCCNC(=N)N)C(=O)N[C@@H](CCCNC(=N)N)C(=O)N[C@@H](CO)C(=O)N[C@@H](C)C(=O)N[C@@H](CC(=O)O)C(=O)N[C@H](C(=O)N[C@@H](Cc1ccccc1)C(=O)N[C@H](C(N)=O)[C@@H](C)CC)[C@@H](C)CC [Compound 11] (Palmitoyl-FRSSREKRRSADIFI-NH2)
- EC50: 1 to 500 nM
